What all share (assay): growth of human tumour cells (NCI), 48 h
In assay [1] the test system is 786-0 renal.
Assay [2] concerns MDA-MB-435.
In assay [3] the test system is NCI-H226 lung.
In assay [4] the test system is OVCAR-3 ovarian.
Assay [5] deals with RXF 393 renal.
The subject of assay [6] is MOLT-4 leukemia.
Assay [7] relates to MCF7 breast.
Assay [8] has as its system UACC-257 melanoma.
Assay [9] concerns OVCAR-4 ovarian.
Assay [10] deals with MDA-MB-231 breast.
The test system of assay [11] is SN12C renal.
The test system of assay [12] is SNB-75 CNS.
Assay [13] concerns SF-268 CNS.
For assay [14], the system named is RPMI-8226 leukemia.
For assay [15], the system named is HS 578T breast.
For assay [16], the system named is UACC-62 melanoma.
Assay [17] deals with BT-549 breast.

SMILES strings stand for the structures.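 Tested at 5 concentrations; 48 h exposure; 96-well plates; endpoints linearly interpolated, else capped at highest concentration. TGI marks complete inhibition of growth.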

Consider `Cc1cc(C)n(-c2nc3ccccc3c(=O)n2-c2ccccc2)n1`, for which the TGI in [1], in assay [2], in [3], in [4], in assay [5] and in [6] was more than 100 µM each time. Also, the TGI in [7], in assay [8], in [9], in assay [10], in assay [11] and in [12] was more than 100 µM each time. The molecule also came in with a TGI in assay [13] of more than 100 µM.
For `C[n+]1ccc(-c2cc[n+](C)cc2)cc1`, the TGI in assay [1] was more than 100 µM; in [3] it was 43.1 µM; in [4], more than 46.6 µM; in assay [14], more than 100 µM; in assay [5], 3.93 µM; in [6], more than 100 µM. For the same molecule, the TGI in assay [8] is 3.09 µM; in assay [9], 3.21 µM; in assay [11] it was 30.3 µM; in assay [12], 99.8 µM; in assay [13], more than 100 µM.
As to `c1ccc(N=c2sc3ccccc3sc2=Nc2ccccc2)cc1`, the TGI in assay [1] was 3.14 µM; in [2] it was 3.99 µM; in assay [3], 9.3 µM; in assay [14] it was more than 100 µM; in assay [5], 3.49 µM; in assay [6], more than 100 µM. Besides, the TGI was 7.51 µM in assay [15]; 12.7 µM in [8]; 3.68 µM in assay [9]; 3.67 µM in assay [10]; 3.15 µM in assay [11]; 2.66 µM in assay [16]. The results for the TGI in assay [12] and in [13] were 11.5 µM and 10.2 µM, respectively.
With `CN1C(=O)[C@@H]2N(CSC2(C)C)C1=S`, the TGI in [1], in assay [2], in assay [3], in assay [4], in [14] and in assay [5] was more than 100 µM each time. Also, the TGI in assay [17], in assay [6], in assay [7], in [8], in assay [9] and in [10] was more than 100 µM in each case. Besides, the TGI in assay [11], in assay [16], in [12] and in assay [13] was more than 100 µM each time.
For `O=C1Oc2ccccc2C(=O)/C1=C/N1C(=O)N/C(=C\c2cccc(O)c2)C1=O`, the TGI is more than 100 µM in assay [1]; more than 100 µM in assay [2]; more than 100 µM in [3]; more than 100 µM in assay [4]; 73.2 µM in assay [17]; more than 100 µM in assay [6]. The TGI in assay [7], in assay [8], in assay [9], in assay [10], in assay [11] and in [12] was more than 100 µM in each case.
Turning to `CN1CCCC1=NC#N`, the TGI in assay [1], in assay [2], in [3], in [4], in [14] and in assay [5] was more than 100 µM in each case. In addition, the TGI in assay [6], in [15], in assay [7], in assay [9], in assay [10] and in [11] was more than 100 µM each time. Besides, the TGI in [16], in assay [12] and in assay [13] was more than 100 µM in each case.
Turning to `Cc1nc(-c2cc3c(ccc4ccccc43)oc2=O)cc2c1c(=O)oc1ccc3ccccc3c12`, the TGI in [1], in assay [2], in assay [4], in [5], in assay [17] and in [6] was more than 100 µM each time. Further, the TGI in [7], in [8], in assay [9], in [10], in assay [16] and in assay [13] was more than 100 µM each time.
For `CC(C)(C)CC(C)(C)N=C(N)NO`, the TGI in [1], in assay [2], in assay [3], in assay [4], in [14] and in assay [5] was more than 100 µM each time. Also, the TGI in [6], in [15], in assay [7], in assay [8], in assay [9] and in [10] was more than 100 µM throughout. The TGI in assay [11], in assay [16], in assay [12] and in assay [13] was more than 100 µM in each case.
Take `CC(C)Oc1ccc(CNC2=NCCO2)c2ccccc12`: the TGI worked out at 26.4 µM in [1]; 24.2 µM in assay [2]; 33 µM in [3]; 28.3 µM in [14]; 28.3 µM in assay [5]; 19.8 µM in assay [6]. The TGI in [15] was found to be 32 µM; in assay [7], 29.6 µM; in [8], 20 µM; in assay [9], 31.1 µM; in assay [10] it was 28.9 µM; in assay [11], 32.2 µM. Besides, the TGI in assay [16] worked out at 30.6 µM; in assay [12], 34.7 µM; in [13], 45.7 µM.
On to `O=C(Nc1nnc(-c2c(Cl)c(Cl)c(Cl)c(Cl)c2-c2nc3cc(C(=O)c4ccccc4)ccc3[nH]2)o1)c1ccccc1`, for which the TGI in assay [1] stood at 30.5 µM; in [2] it was 30.8 µM; in [3], 35.5 µM; in assay [4], 44.7 µM; in [14] it was 30.4 µM; in assay [5] it was 39.1 µM. In addition, the TGI in assay [17] was 73.4 µM; in assay [6], 72.5 µM; in [7] it was 36.5 µM; in [8], 85.7 µM; in assay [9], 95.1 µM; in [10], 33.7 µM. Moreover, the TGI in [11] was found to be 31.3 µM; in [12], 41.4 µM.
`Cc1cc(N(CCCCl)CCCCl)ccc1C=Nc1cccc(Cl)c1`: the TGI in [1] came to 43.2 µM; in assay [2], 36.2 µM; in [3] it was 0.562 µM; in [4], 33.5 µM; in assay [14], 0.231 µM; in [5] it was 35.5 µM. In addition, the TGI was 21.2 µM in assay [6]; 36.2 µM in [15]; 49.9 µM in assay [7]; 20.2 µM in assay [8]; 26.4 µM in assay [9]; 29.3 µM in [10]. The TGI in assay [11] came out at 37.1 µM; in assay [16] it was 7.28 µM; in assay [12] it was 24.7 µM; in assay [13], 48.4 µM.
Take `Cc1ccc2c(c1)SC(c1cc3c(cc1Br)OCO3)S2` (stereo not drawn): the TGI in assay [1], in assay [3], in assay [4], in [14], in [5] and in assay [6] was more than 31.6 µM each time. Further, the TGI in assay [8] is more than 31.6 µM; in assay [9], more than 31.6 µM; in assay [11], more than 31.6 µM; in assay [16] it was more than 31.6 µM; in assay [12] it was 6.73 µM; in assay [13], more than 31.6 µM.
As for `N#Cc1c(C#N)c(-c2ccco2)n(-c2ccccc2)c1N`, the TGI in assay [1], in [2], in assay [3], in assay [4], in assay [14] and in [5] was more than 100 µM each time. Besides, the TGI in assay [17], in [6], in assay [7], in [8], in [9] and in [10] was more than 100 µM throughout. The TGI in [11] is more than 100 µM; in [16], more than 100 µM; in assay [12] it was 84.4 µM; in assay [13] it was more than 100 µM.
As to `O=C1/C(=C/c2ccccc2)N=C(c2ccccc2)N1C1Nc2cc3c(cc2S1)NC(N1C(=O)/C(=C/c2ccccc2)N=C1c1ccccc1)S3` (stereo not drawn), the TGI in [1] was more than 100 µM; in [2], 47.1 µM; in assay [3], more than 100 µM; in [4] it was more than 100 µM; in [14], 68.4 µM; in assay [5] it was 54.3 µM. The TGI in [6] is 88.2 µM; in [7] it was more than 100 µM; in [8] it was more than 100 µM; in assay [9] it was more than 100 µM; in [10], more than 100 µM; in [13], more than 100 µM.
As to `CC(C)c1c(O[Si](C(C)C)(C(C)C)C(C)C)c2c3c(ccc4c3c1OC4(C)C)C(C)CC2` (stereo not drawn), the TGI in assay [1], in assay [2], in [3], in [4], in [14] and in assay [5] was more than 100 µM throughout. Moreover, the TGI in [6], in assay [15], in [7], in assay [8], in assay [9] and in [10] was more than 100 µM in each case. The TGI in assay [11], in assay [16], in assay [12] and in [13] was more than 100 µM in each case.
For the molecule `COC(=O)c1c2c(c(-c3ccccc3)c3c1-c1nc(Cl)ccc1CC3)CCc1ccc(Cl)nc1-2`, the TGI in assay [1], in assay [3], in assay [4], in [14], in assay [5] and in assay [6] was more than 100 µM throughout. The TGI in assay [8], in assay [9], in assay [11], in [16], in assay [12] and in assay [13] was more than 100 µM in each case.
As for `CCOC(=O)C(=Cc1cc(OC)ccc1OC)C(=O)OCC`, the TGI in [1] came out at 14.1 µM; in assay [3], 27 µM; in [4] it was 22.5 µM; in [14], 10.9 µM; in [5], 6.2 µM; in [6], 37.9 µM. The TGI stood at 21.6 µM in [9], 26.3 µM in assay [11], 6.13 µM in assay [16] and 5.95 µM in assay [12].
For `O=C(/C=C\c1ccccc1)Oc1ccc(/C=C2\CCCCC2=O)cc1`, the TGI in [1] is more than 100 µM; in [2] it was 84.6 µM; in assay [4], more than 100 µM; in assay [14] it was 50.6 µM; in [6], 16.5 µM; in assay [15], more than 100 µM. Further, the TGI was more than 100 µM in [7]; 87.3 µM in assay [8]; more than 100 µM in assay [9]; more than 100 µM in assay [10]; more than 100 µM in [11]; 0.136 µM in [16]. For the same molecule, the TGI in [12] and in [13] was more than 100 µM throughout.
In the case of `COCOCC1CCCN1CN1CCC[C@H]1COCOC` (stereo partly drawn), the TGI was more than 100 µM in [1]; more than 100 µM in assay [2]; more than 100 µM in [3]; more than 100 µM in assay [4]; 99.5 µM in assay [14]; more than 100 µM in assay [6]. Moreover, the TGI in assay [15], in assay [7], in assay [8], in [9], in assay [10] and in [11] was more than 100 µM each time. The TGI in assay [16], in assay [12] and in assay [13] was more than 100 µM in each case.
In the case of `CCCc1c(C(=O)OCC)[nH]c(-c2ccc(-c3[nH]c(C(=O)OCC)c(CCC)c3C(=O)OCC)o2)c1C(=O)OCC`, the TGI in assay [1], in assay [3], in [4], in assay [14], in assay [5] and in [6] was more than 100 µM each time. Moreover, the TGI in assay [8], in assay [9], in [11], in assay [16], in assay [12] and in [13] was more than 100 µM in each case.

Values taken from PubChem BioAssay (NCI).
